Values of other authors, collected in US9491955B2, “Balanced myristate- and laurate-containing edible oil” (Brandeis University, priority 2008, dated 2016).

Test system: rats
Details: trimyristin component of a blend with peanut oil

## CCCCCCCCCCCCCC(=O)OCC(COC(=O)CCCCCCCCCCCCC)OC(=O)CCCCCCCCCCCCC [trimyristin]
  Decrease of cholesterol-raising capacity by interesterification with GNO: 34%
